{
  "source": "patent US20250302913A1",
  "about": "“LACRIPEP PROMOTES NEUROREGENERATION AND MAINTAINS EPITHELIAL PROGENITOR CELL IDENTITY” (The Regents of The University of California, priority 2022, published 2025)",
  "key": {"[1]": {"system": "corneal nerves of Aire KO corneas", "experiment": "Corneal nerve density (GAP43, TUBB3, SP, CGRP immunolabeling)", "assay_type": "in vivo, mouse", "from_the_text": "To test for changes in innervation, corneas isolated from the four treatment groups at day 15 were immunostained for growth-associated protein 43 (GAP43), a marker of remodeling axons (25), along with two common sensory neuropeptides, substance P (SP) and calcitonin-gene related protein (CGRP). SP and CGRP are differentially expressed to carry out discrete functions: SP is released in response to trigeminal activation to modulate tear secretion and goblet cell function (26) while CGRP is involved in multiple homeostatic processes, including corneal epithelium regeneration and regulation of vasculature (27, 28). […] Thus, lacripep treatment successfully regenerates the sensory nerve supply to the inflamed cornea during disease progression.\nGiven nerve-epithelial interactions are essential for mediating physiological tear secretion, we next assessed innervation to corneal epithelial cell layers at 2 wks of treatment (day 15, 7 wks of age) through immunofluorescent analysis.\nNext, we questioned the timing of epithelial reinnervation in response to lacripep treatment by analyzing the nerve supply at the 7 day time point (6 wks of age) through 3D imaging of intact whole mount corneas (FIG. 3A). […] Of note, the pro-regenerative cellular changes after axon injury result in neurons switching from an active, electrically transmitting state back to an electrically silent, growth-competent state (29-31), thereby likely impairing increased basal tear production at the 7 day time point for lacripep treated mice compared to untreated Aire KO controls (FIG. 1B).\nFor corneal whole mount staining, PFA fixed corneas were blocked and incubated in primary antibodies for 48 hr at 4° C.: Mouse anti-TUBB3 (1:300, R&D, MAB 1195), rabbit anti-GAP43 (1:400, Novus bio, NB 300-143), goat anti-CGRP (1:300, Thermo fisher, PA1-85250), and rat anti-Substance P (1:500, Millipore, MAB 356). This was followed by extensive washes in PBST before tissue was incubated in secondary antibodies overnight at 4° C.\n(§1) Quantification of corneal epithelial nerve density and synapses. Tissue sections: TUBB3+ nerve density within 300 μm sections of central cornea epithelial ROI was quantified by applying Tsai's thresholding method (Moments), with integrated densities within the ROI of the thresholded image being recorded. Corneal whole mounts: The density of nerves expressing GAP43, TUBB3, or GAP43 and TUBB3 (% Area of 354 μm×396 μm) was quantified from central cornea images of whole mount cornea and plotted in a stacked bar graph to visualize the proportion of each of the three nerve types. Similarly, numbers of synapses marked by expression of GAP43, TUBB3, or GAP43 and TUBB3 were counted per respective region of central cornea (100 μm2) and plotted in a stacked bar graph. The density of GAP43+ nerves were quantified from the whole mount cornea images (354 μm×396 μm) applying Tsai's threshold as described above.\n3D reconstruction of nerve fibers. Acquired confocal Z-stacks comprising epithelial and stroma were reconstructed into 3D images using Imaris image analysis software (Bitplane AG, Zurich, Switzerland). The surface of the nuclei (Hoechst) and nerves (TUBB3/GAP43/SP/CGRP) were segmented using the background subtraction threshold. Each channel was obtained separately. Touching nuclei were split by the calculated seed points inside each area."}, "Aire KO corneas": {"system": "Aire KO corneas", "experiment": "Epithelial barrier function by lissamine green uptake", "assay_type": "in vivo, mouse", "from_the_text": "As dry eye results in disruption of ocular surface integrity resulting in cornea barrier dysfunction and, consequently, fluid loss and pathogen invasion (11), we next determined whether lacripep maintains corneal epithelial architecture by analyzing lissamine green uptake at day 7 and 15. […] Restoration of barrier function was further confirmed by analyzing the superficial epithelial layers for the tight junction protein ZO1 which is essential to the structural integrity of the corneal epithelium (12).\nAire KO female mice aged 5 weeks were used for the study. All mice were topically treated with 5 μL per eye of 4 μM lacripep. Dosing was three times daily for 14 consecutive days. Lissamine green staining assessment and tear secretion assays were performed on each eye before treatment at baseline, 7 days and 14 days post treatment\nAfter mice were anesthetized with isoflurane, 5 μL of lissamine green dye (1%) was applied to the lower conjunctival cul-de-sac. […] Lissamine green staining was scored by dividing the cornea into four quadrants, the extent of staining in each quadrant was classified as Grade 0, no staining; Grade 1, sporadic (<25%); Grade 2, diffuse punctate (25-75%), or Grade 3, coalesced punctate staining (75% or more). The total score was calculated separately for each eye and equaled the sum of all four quadrants ranging from 0 (no staining) to 12 (most severe staining). […]"}, "syndecan-1 (SDC1)": {"biological_target": "T1, syndecan-1 (SDC1) (Homo sapiens, UniProt P18827)", "T1 sequence (P18827 23-310)": "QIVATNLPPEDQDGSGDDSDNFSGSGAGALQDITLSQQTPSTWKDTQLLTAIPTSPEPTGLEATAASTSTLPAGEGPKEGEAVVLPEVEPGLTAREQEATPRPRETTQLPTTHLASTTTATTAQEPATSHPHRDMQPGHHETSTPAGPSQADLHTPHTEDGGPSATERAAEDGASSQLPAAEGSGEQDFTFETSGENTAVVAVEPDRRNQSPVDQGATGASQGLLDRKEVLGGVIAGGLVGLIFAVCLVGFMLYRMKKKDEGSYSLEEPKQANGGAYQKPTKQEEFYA", "details": "cited from earlier work"}, "[2]": {"system": "intraepithelial sensory nerve terminals", "experiment": "Intraepithelial sensory nerve terminals by 3D imaging (IMARIS)", "assay_type": "in vivo, mouse", "details": "day 7", "from_the_text": "We next determined the extent of functional reinnervation of the cornea at day 7 by assessing the distribution of sensory nerve endings (nerve terminals) within the epithelial layers in lacripep-treated Aire KO corneas compared to WT and PBS KO controls (FIG. 3D). Sensory nerve terminals within the corneal epithelium respond to changes in the thickness and stability of the tear film to promote basal tear secretion, while also triggering epithelial responses to restore homeostasis through the release of neurotransmitters. […]\nas §1, with “The density of GAP43+ nerves were quantified from the whole mount cornea images (354 μm×396 μm) applying Tsai's threshold as described above.” left out\n3D reconstruction of nerve fibers. […] Touching nuclei were split by the calculated seed points inside each area."}},
  "data": [
    {"substance": "Ac-KQFIENGSEFAQKLLKKFSLLKPWA-NH2 [lacripep, amino terminus acetylated, carboxyl terminus aminated]", "values": [
      {"measurement": "proportion of GAP43+ TUBB3+ nerves in central cornea", "setting": "[1]; day 7, WT 37%", "value": 26, "unit": "%"},
      {"measurement": "proportion of GAP43+ nerves in central cornea", "setting": "[1]; day 7, WT 43%", "value": 50, "unit": "%"},
      {"measurement": "nerve density of central cornea relative to WT tissue", "setting": "[1]; day 7, whole mount", "value": "45 % of the nerve density of WT tissue"},
      {"measurement": "nerve density level", "setting": "[1]; day 15", "value": "returning to that of WT cornea"},
      {"measurement": "innervation of epithelial cell layers (TUBB3+ axons)", "setting": "[1]; day 15, central corneal cross-sections", "value": "resembled that of WT tissue"},
      {"measurement": "density of GAP43+ nerve fibers expressing SP and CGRP", "setting": "[1]; day 15, whole mount cornea", "value": "nearly equivalent to that of the WT controls"},
      {"measurement": "lissamine green uptake", "setting": "Aire KO corneas; day 7, compared to WT controls", "value": "increased lissamine green uptake compared to WT controls"},
      {"measurement": "epithelial barrier function (lissamine green uptake)", "setting": "Aire KO corneas; day 15, uptake levels resembling WT corneas", "value": "significantly improved"},
      {"measurement": "binding and activation of syndecan-1", "setting": "syndecan-1 (SDC1)", "value": "bind and activate"},
      {"measurement": "intraepithelial sensory nerve terminals", "setting": "[2]; PBS 5, WT 78", "value": 50, "unit": "per 0.1 mm^2"},
      {"measurement": "proportion of sensory nerve terminals expressing GAP43 as opposed to only TUBB3", "setting": "[2]; compared to WT controls", "value": "increase"}
    ]}
  ]
}
